Assay results as given in PMC10354095, “Insights into peculiar fungal LPMO family members holding a short C-terminal sequence reminiscent of phosphate binding motifs” (Scientific Reports, 2023).

Target: T1, CciAA9-X282-CBM1 (Coprinopsis cinerea, UniProt A8NCG7)
T1 construct: gene AA9-X282; AA9-X282-linker-CBM1; C-terminal poly-His tag; Pichia pastoris X33
Test: Amplex Red/HRP oxidase assay (H2O2 production)
Format: biochemical
Conditions: reductant (electron donor) at 50 uM, O2 as co-substrate; 1 uM enzyme; sodium phosphate 50 mM, pH 7.0

T1 sequence (A8NCG7 19-342): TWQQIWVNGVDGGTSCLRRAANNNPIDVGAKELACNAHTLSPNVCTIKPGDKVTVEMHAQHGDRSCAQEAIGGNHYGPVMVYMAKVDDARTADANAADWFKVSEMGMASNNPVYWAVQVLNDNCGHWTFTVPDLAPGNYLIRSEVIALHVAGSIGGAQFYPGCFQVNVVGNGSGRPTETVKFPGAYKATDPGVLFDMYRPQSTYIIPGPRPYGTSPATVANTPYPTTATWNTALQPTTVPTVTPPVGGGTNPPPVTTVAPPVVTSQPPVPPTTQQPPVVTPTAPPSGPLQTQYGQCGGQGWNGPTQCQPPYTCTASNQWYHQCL

## O=C1O[C@H]([C@@H](O)CO)C(O)=C1O [ascorbic acid]
  Amplex Red/HRP oxidase assay (H2O2 production): all AA9-X282 LPMOs displayed an oxidase (i.e. H2O2 producing) activity
